Assay: Kinetic constant for galactosyltransferase inhibition was determined

Row | Ki | SMILES
1 | 128 µM | O=c1ccn([C@@H]2O[C@H](COP(=O)(O)OP(=O)(O)OP(=O)(O)O)[C@@H](O)[C@H]2O)c(=O)[nH]1 [uridine 5'-(tetrahydrogen triphosphate)]
2 | 165 µM | O=c1ccn(C2O[C@H](COP(=O)(O)OP(=O)(O)C3O[C@H](CO)[C@@H](O)[C@H](O)[C@H]3O)[C@@H](O)[C@H]2O)c(=O)[nH]1 (some centres not stated)

Source: BindingDB's records for doi:10.1021/jm00391a020 (1987)
